Laboratory results as given in BigSolDB 2.1.

CC1(C)O[C@@H]2[C@@H](CO[C@@]3(COS(N)(=O)=O)OC(C)(C)O[C@@H]23)O1
solubility (mole fraction)
Conditions | 278.15 K | 283.15 K | 288.15 K | 293.15 K | 298.15 K | 303.15 K | 308.15 K | 313.15 K | 318.15 K | 323.15 K
in 2-butoxyethanol | 0.0541 | 0.0602 | 0.0676 | 0.0756 | 0.0849 | 0.0986 | 0.111 | 0.124 | 0.14 | 0.157
in 2-ethoxyethanol | 0.11 | 0.118 | 0.126 | 0.137 | 0.149 | 0.162 | 0.173 | 0.191 | 0.209 | 0.229
in 2-methoxyethanol | 0.149 | 0.156 | 0.165 | 0.176 | 0.187 | 0.198 | 0.212 | 0.228 | 0.245 | 0.263
in 2-propoxyethanol | 0.0726 | 0.0803 | 0.089 | 0.0981 | 0.109 | 0.121 | 0.134 | 0.15 | 0.167 | 0.187
in ethanol | 0.0169 | 0.0202 | 0.0252 | 0.0315 | 0.039 | 0.0478 | 0.0628 | 0.079 | 0.102 | 0.129
in isobutanol | 0.00375 | 0.004 | 0.00525 | 0.00684 | 0.00911 | 0.0121 | 0.0166 | 0.0225 | 0.0314 | 0.0441
in isopentanol | 0.00308 | 0.00401 | 0.0052 | 0.00684 | 0.00905 | 0.0119 | 0.0147 | 0.0197 | 0.0261 | 0.0353
in isopropanol | 0.00638 | 0.00814 | 0.0106 | 0.014 | 0.0186 | 0.0247 | 0.0299 | 0.0408 | 0.0594 | 0.0818
in methanol | 0.0401 | 0.0476 | 0.0569 | 0.0683 | 0.081 | 0.0951 | 0.112 | 0.131 | 0.148 | 0.174
in n-butanol | 0.00495 | 0.00629 | 0.00804 | 0.0103 | 0.0131 | 0.0172 | 0.0231 | 0.0298 | 0.0397 | 0.0538
in n-heptanol | 0.00256 | 0.00327 | 0.00425 | 0.0054 | 0.00686 | 0.00877 | 0.0116 | 0.015 | 0.0196 | 0.0256
in n-hexanol | 0.0029 | 0.00363 | 0.00496 | 0.00628 | 0.00807 | 0.0104 | 0.0138 | 0.018 | 0.0236 | 0.0312
in n-pentanol | 0.00373 | 0.00472 | 0.00601 | 0.00747 | 0.00969 | 0.0126 | 0.0157 | 0.0207 | 0.0272 | 0.0367
in n-propanol | 0.00715 | 0.00923 | 0.0116 | 0.0148 | 0.0187 | 0.0252 | 0.0333 | 0.0439 | 0.0591 | 0.0794
